In patent publication US6461619B1 (Somerset Pharmaceuticals, Inc., priority 1998, dated 2002):
Structures can show the parent of a compound that is named as a salt.

Assays:
[1] = test system: second-degree burn wounds; assay: second-degree burn wound model, epidermal migration (epithelization) assessment; type: in vivo, Swine; details: for Percent of wounds completely epithelized / number of wounds healed (completely epithelized) over the number of wounds assessed: pig
Description: The ability of selegiline and desmethylselegiline to assist in the healing of burns was tested using a second-degree burn wound model. In second-degree burns, the entire surface of the epidermis is destroyed. An epidermal covering is regenerated from the remaining epithelial and epidermal cells adjacent to the burns. This phase of the healing process is called epithelization.
Swine were used for the experimental research animal because their skin has many morphological similarities to human skin. Seven young female specific pathogen free (SPF:Ken-O-Kaw Farms, Windsor, Ill.) pigs weighing 25-30 kg were kept in house for two weeks prior to initiating the experiment. These animals were fed a basal diet ad libitum and housed individually in facilities with controlled temperature (19-21° C.) and lights (12 h/12 h LD).
Experimental animals were clipped with standard animal clippers on the day of the experiment. The skin on the back and both sides of the animal was prepared for wounding by washing with a non-antibiotic soap and sterile water. Each animal was anesthetized i.m. with ketamine-HCl (20 mg/kg), xylazine (2 mg/kg) and atropine (0.05 mg/kg), followed by mask inhalation of an isoflurane and oxygen combination. Five specifically designed cylindrical brass rods weighing 358 g each were heated in a boiling water bath to 100° C. A rod was removed from the water bath and wiped dry before being applied to the skin surface to prevent water droplets from creating a steam burn on the skin. The brass rod was held at a vertical position on the skin for six seconds with all pressure being supplied by gravity in order to make a burn 8.5 mm diameter×0.8 mm deep. Immediately after burning, the roof of the burn blister was removed with a sterile spatula. The burn wounds were made approximately 2 cm from each other.
Approximately 90 burn wounds were made on the anterior two-thirds of the animal. The posterior third of the animal cannot be used because of anatomical differences in burn wound healing (a more rapid healing of burns has been observed at that position).
A total of seven animals were used and a total of fifteen wounds per treatment group were analyzed on each of days 7-12 after wounding. Treatments were coded to maintain blind study compliance. The burn wounds were treated with 25 ug of test article (enough to cover each wound). Treatments were allowed to penetrate into the sites for at least a 20 minute time period. Each treatment was applied within 20 minutes of blister removal and treatment occurred once a day for the first five days.
Beginning on day seven after wounding (day 0) and each day thereafter for four to six days, five burn wounds and the surrounding normal skin from each treatment area were excised using an electrokeratome. Any specimens that were not excised intact were discarded. The excised wounds and the surrounding normal skin were incubated in 0.5 M NaBr for 24 hours at 37° C. After incubation, the specimens were separated into epidermal and dermal sheets. The epidermis was examined macroscopically for defects in the area of the burn wounds. Epithelization was considered complete if no defect was present (healed). […] The epidermal sheet was placed on cardboard for a permanent record.
The number of wounds healed (completely epithelized) were divided by the total number of wounds sampled per day and multiplied by 100.

[2] = test system: superoxide dysmutase, catalase and glutathione peroxidase; details: background statement (Jenner, et al.); cited from earlier work
[3] = 10^-4M topical, day 7 after burning
[4] = 10^-4M topical, day 8 after burning
[5] = 10^-4M topical, day 9 after burning
[6] = 10^-4M topical, day 10 after burning
[7] = 10^-4M topical, day 11 after burning
[8] = 10^-4M topical, day 12 after burning
[9] = 10^-4M topical, day 13 after burning
[10] = 10^-6M topical, day 7 after burning
[11] = 10^-6M topical, day 8 after burning
[12] = 10^-6M topical, day 9 after burning
[13] = 10^-6M topical, day 10 after burning
[14] = 10^-6M topical, day 11 after burning
[15] = 10^-6M topical, day 12 after burning
[16] = 10^-6M topical, day 13 after burning
[17] = 10^-8M topical, day 7 after burning
[18] = 10^-8M topical, day 8 after burning
[19] = 10^-8M topical, day 9 after burning
[20] = 10^-8M topical, day 10 after burning
[21] = 10^-8M topical, day 11 after burning
[22] = 10^-8M topical, day 12 after burning
[23] = 10^-8M topical, day 13 after burning

For C#CCN(C)[C@H](C)Cc1ccccc1 [selegiline HCl, selegiline], the “initiation of epithelization compared with other treatment groups” value ([1]; 10^-4 M and 10^-6 M) was “earlier time point than all other treatment groups”, the “Percent of wounds completely epithelized” value [1, 3] was “(0%)” and the “number of wounds healed (completely epithelized) over the number of wounds assessed” value (“number … over the number of wounds assessed” below) [1, 3] was  0/15. The “Percent of wounds completely epithelized” value [1, 4] was “(0%)”, the “number … over the number of wounds assessed” value [1, 4] was  0/15 and the “Percent of wounds completely epithelized” value [1, 5] was “(0%)”. The “number … over the number of wounds assessed” value [1, 5] was  0/15, the “Percent of wounds completely epithelized” value [1, 6] was 20% and the “number … over the number of wounds assessed” value [1, 6] was  3/15. The “Percent of wounds completely epithelized” value ([1]; 10^-4M topical, day 10 after burning, listed as A-1) was “(20%)”, the “Percent of wounds completely epithelized” value [1, 7] was 33% and the “number … over the number of wounds assessed” value [1, 7] was  5/15. The “Percent of wounds completely epithelized” value ([1]; 10^-4M topical, day 11 after burning, listed as A-1) was “(33%)”, the “Percent of wounds completely epithelized” value [1, 8] was 33% and the “number … over the number of wounds assessed” value [1, 8] was  6/15. The “Percent of wounds completely epithelized” value ([1]; 10^-4M topical, day 12 after burning, listed as A-1) was “(40%)”, the “Percent of wounds completely epithelized” value [1, 9] was 33% and the “number … over the number of wounds assessed” value [1, 9] was  6/15. The “Percent of wounds completely epithelized” value ([1]; 10^-4M topical, day 13 after burning, listed as A-1) was “(40%)”, the “Percent of wounds completely epithelized” value [1, 10] was “(0%)” and the “number … over the number of wounds assessed” value [1, 10] was  0/15. The “Percent of wounds completely epithelized” value [1, 11] was “(0%)”, the “number … over the number of wounds assessed” value [1, 11] was  0/15 and the “Percent of wounds completely epithelized” value [1, 12] was “(0%)”. For the same compound, the “number … over the number of wounds assessed” value [1, 12] was  0/15, the “Percent of wounds completely epithelized” value [1, 13] was 20% and the “number … over the number of wounds assessed” value [1, 13] was  3/15. For the same compound, the “Percent of wounds completely epithelized” value ([1]; 10^-6M topical, day 10 after burning, listed as A-2) was “(20%)”, the “Percent of wounds completely epithelized” value [1, 14] was 33% and the “number … over the number of wounds assessed” value [1, 14] was  5/15. The “Percent of wounds completely epithelized” value ([1]; 10^-6M topical, day 11 after burning, listed as A-2) was “(33%)”, the “Percent of wounds completely epithelized” value [1, 15] was 40% and the “number … over the number of wounds assessed” value [1, 15] was  6/15. For the same compound, the “Percent of wounds completely epithelized” value ([1]; 10^-6M topical, day 12 after burning, listed as A-2) was “(40%)”, the “Percent of wounds completely epithelized” value [1, 16] was 40% and the “number … over the number of wounds assessed” value [1, 16] was  6/15. The “Percent of wounds completely epithelized” value ([1]; 10^-6M topical, day 13 after burning, listed as A-2) was “(40%)”, the “Percent of wounds completely epithelized” value [1, 17] was “(0%)” and the “number … over the number of wounds assessed” value [1, 17] was  0/15. For the same compound, the “Percent of wounds completely epithelized” value [1, 18] was “(0%)”, the “number … over the number of wounds assessed” value [1, 18] was  0/15 and the “Percent of wounds completely epithelized” value [1, 19] was “(0%)”. The “number … over the number of wounds assessed” value [1, 19] was  0/15, the “Percent of wounds completely epithelized” value [1, 20] was “(0%)” and the “number … over the number of wounds assessed” value [1, 20] was  0/15. The “Percent of wounds completely epithelized” value [1, 21] was “None”, the “number … over the number of wounds assessed” value [1, 21] was  0/15 and the “Percent of wounds completely epithelized” value ([1]; 10^-8M topical, day 11 after burning, listed as A-3) was “(0%)”. The “Percent of wounds completely epithelized” value [1, 22] was 7%, the “number … over the number of wounds assessed” value [1, 22] was  1/15 and the “Percent of wounds completely epithelized” value ([1]; 10^-8M topical, day 12 after burning, listed as A-3) was “(7%)”. For the same compound, the “Percent of wounds completely epithelized” value [1, 23] was “Thirty-eight”, the “number … over the number of wounds assessed” value [1, 23] was  6/16 and the “Percent of wounds completely epithelized” value ([1]; 10^-8M topical, day 13 after burning, listed as A-3) was “(38%)”. For the same compound, the “wound crust colour during absorption of applied agent” value ([1]; first three days of treatment, normal again after 15 minutes) was “more pronounced” and the “activity of the endogenous anti-oxidants superoxide dysmutase, catalase and glutathione peroxidase” value [2] was “increase the activity”.
